Source: paper PMC5146859, “Phase 1/2 study of pacritinib, a next generation JAK2/FLT3 inhibitor, in myelofibrosis or other myeloid malignancies” (Journal of Hematology & Oncology, 2016)

System: patients with advanced myeloid malignancies
Test: Phase 1 safety: adverse events (NCIC-CTCAE version 3.0)
Assay type: in vivo, human
Procedure: At screening/baseline, patients underwent a medical history, physical examination, vital sign assessment, ECOG PS assessment, electrocardiogram, and assessment of hematologic parameters and blood chemistry. Hematology/blood chemistry, physical examinations, and vital sign assessments were performed throughout treatment. Toxicity was assessed using the National Cancer Institute Common Terminology Criteria for Adverse Events (NCIC-CTCAE), version 3.0, with relationship to treatment assigned by the investigator and were recorded from the first dose of pacritinib until 30 days after the last dose. Bone marrow biopsy and/or aspirate samples were drawn at baseline, on day 1 of cycle 4 and cycle 10, as clinically indicated, and at the termination visit. Disease response and progression were determined using the relevant International Working Group (IWG) criteria.
The efficacy-evaluable population included those patients with a baseline and corresponding follow-up value. The safety population included all enrolled patients who received ≥1 dose of pacritinib.

**Q.** `C1=C/COCc2cc(ccc2OCCN2CCCC2)Nc2nccc(n2)-c2cccc(c2)COC/1` [pacritinib, 11-(2-pyrrolidin-1-yl-ethoxy)-14,19-dioxa-5,7,26-triaza-tetracyclo[19.3.1.1(2,6). 1(8,12)]heptacosa-1(25),2(26),3,5,8,10,12(27),16,21,23-decaene] was tested. Which “Treatment-emergent AE: Dehydration” value (phase 1, 200 mg, n = 9) did it give?
**A.** 0 n (%)

**Q.** What about the “Treatment-emergent AE: Diarrhea” value (phase 1, 200 mg, n = 9) of the same compound?
**A.** 5 (55.6) n (%)

**Q.** And the “Treatment-emergent AE: Dizziness” value (phase 1, 200 mg, n = 9)?
**A.** 2 (22.2) n (%)

**Q.** And the “Treatment-emergent AE: Dyspnea” value (phase 1, 200 mg, n = 9)?
**A.** 0 n (%)

**Q.** What about the “Treatment-emergent AE: Edema peripheral” value (phase 1, 200 mg, n = 9) of the same compound?
**A.** 1 (11.1) n (%)

**Q.** What about the “Treatment-emergent AE: Epistaxis” value (phase 1, 200 mg, n = 9) of the same compound?
**A.** 1 (11.1) n (%)

**Q.** And the “Treatment-emergent AE: Fatigue” value (phase 1, 200 mg, n = 9)?
**A.** 3 (33.3) n (%)

**Q.** What about the “Treatment-emergent AE: Hyperbilirubinemia” value (phase 1, 200 mg, n = 9) of the same compound?
**A.** 1 (11.1) n (%)

**Q.** What about the “Treatment-emergent AE: Hyperuricemia” value (phase 1, 200 mg, n = 9) of the same compound?
**A.** 0 n (%)

**Q.** And the “Treatment-emergent AE: Insomnia” value (phase 1, 200 mg, n = 9)?
**A.** 2 (22.2) n (%)

**Q.** And the “Treatment-emergent AE: Nausea” value (phase 1, 200 mg, n = 9)?
**A.** 2 (22.2) n (%)

**Q.** And the “Treatment-emergent AE: Neutropenia” value (phase 1, 200 mg, n = 9)?
**A.** 0 n (%)

**Q.** And the “Treatment-emergent AE: Night sweats” value (phase 1, 200 mg, n = 9)?
**A.** 1 (11.1) n (%)

**Q.** What about the “Treatment-emergent AE: Pain in extremity” value (phase 1, 200 mg, n = 9) of the same compound?
**A.** 0 n (%)

**Q.** What about the “Treatment-emergent AE: Petechiae” value (phase 1, 200 mg, n = 9) of the same compound?
**A.** 0 n (%)

**Q.** What about the “Treatment-emergent AE: Pyrexia” value (phase 1, 200 mg, n = 9) of the same compound?
**A.** 2 (22.2) n (%)

**Q.** And the “Treatment-emergent AE: Skin lesion” value (phase 1, 200 mg, n = 9)?
**A.** 1 (11.1) n (%)

**Q.** What about the “Treatment-emergent AE: Thrombocytopenia” value (phase 1, 200 mg, n = 9) of the same compound?
**A.** 0 n (%)

**Q.** And the “Treatment-emergent AE: Upper respiratory tract infection” value (phase 1, 200 mg, n = 9)?
**A.** 2 (22.2) n (%)

**Q.** And the “Treatment-emergent AE: Vomiting” value (phase 1, 200 mg, n = 9)?
**A.** 4 (44.4) n (%)

**Q.** And the “Treatment-emergent AE: Abdominal distension” value (phase 1, 300 mg, n = 6)?
**A.** 1 (16.7) n (%)

**Q.** What about the “Treatment-emergent AE: Abdominal pain” value (phase 1, 300 mg, n = 6) of the same compound?
**A.** 1 (16.7) n (%)

**Q.** And the “Treatment-emergent AE: Anemia” value (phase 1, 300 mg, n = 6)?
**A.** 1 (16.7) n (%)

**Q.** And the “Treatment-emergent AE: Any AE” value (phase 1, 300 mg, n = 6)?
**A.** 6 (100.0) n (%)

**Q.** What about the “Treatment-emergent AE: Asthenia” value (phase 1, 300 mg, n = 6) of the same compound?
**A.** 0 n (%)

**Q.** And the “Treatment-emergent AE: Back pain” value (phase 1, 300 mg, n = 6)?
**A.** 1 (16.7) n (%)

**Q.** What about the “Treatment-emergent AE: Cardiac murmur” value (phase 1, 300 mg, n = 6) of the same compound?
**A.** 0 n (%)

**Q.** What about the “Treatment-emergent AE: Chills” value (phase 1, 300 mg, n = 6) of the same compound?
**A.** 0 n (%)

**Q.** What about the “Treatment-emergent AE: Constipation” value (phase 1, 300 mg, n = 6) of the same compound?
**A.** 1 (16.7) n (%)

**Q.** What about the “Treatment-emergent AE: Cough” value (phase 1, 300 mg, n = 6) of the same compound?
**A.** 1 (16.7) n (%)

**Q.** What about the “Treatment-emergent AE: Decreased appetite” value (phase 1, 300 mg, n = 6) of the same compound?
**A.** 0 n (%)

**Q.** And the “Treatment-emergent AE: Dehydration” value (phase 1, 300 mg, n = 6)?
**A.** 0 n (%)

**Q.** What about the “Treatment-emergent AE: Diarrhea” value (phase 1, 300 mg, n = 6) of the same compound?
**A.** 3 (50.0) n (%)

**Q.** What about the “Treatment-emergent AE: Dizziness” value (phase 1, 300 mg, n = 6) of the same compound?
**A.** 1 (16.7) n (%)

**Q.** What about the “Treatment-emergent AE: Dyspnea” value (phase 1, 300 mg, n = 6) of the same compound?
**A.** 0 n (%)

**Q.** And the “Treatment-emergent AE: Edema peripheral” value (phase 1, 300 mg, n = 6)?
**A.** 0 n (%)

**Q.** What about the “Treatment-emergent AE: Epistaxis” value (phase 1, 300 mg, n = 6) of the same compound?
**A.** 2 (33.3) n (%)

**Q.** What about the “Treatment-emergent AE: Fatigue” value (phase 1, 300 mg, n = 6) of the same compound?
**A.** 2 (33.3) n (%)

**Q.** What about the “Treatment-emergent AE: Hyperbilirubinemia” value (phase 1, 300 mg, n = 6) of the same compound?
**A.** 1 (16.7) n (%)

**Q.** And the “Treatment-emergent AE: Hyperuricemia” value (phase 1, 300 mg, n = 6)?
**A.** 0 n (%)

**Q.** And the “Treatment-emergent AE: Insomnia” value (phase 1, 300 mg, n = 6)?
**A.** 1 (16.7) n (%)

**Q.** And the “Treatment-emergent AE: Nausea” value (phase 1, 300 mg, n = 6)?
**A.** 3 (50.0) n (%)

**Q.** And the “Treatment-emergent AE: Neutropenia” value (phase 1, 300 mg, n = 6)?
**A.** 1 (16.7) n (%)

**Q.** And the “Treatment-emergent AE: Night sweats” value (phase 1, 300 mg, n = 6)?
**A.** 0 n (%)

**Q.** And the “Treatment-emergent AE: Pain in extremity” value (phase 1, 300 mg, n = 6)?
**A.** 1 (16.7) n (%)

**Q.** And the “Treatment-emergent AE: Petechiae” value (phase 1, 300 mg, n = 6)?
**A.** 0 n (%)

**Q.** And the “Treatment-emergent AE: Pyrexia” value (phase 1, 300 mg, n = 6)?
**A.** 1 (16.7) n (%)

**Q.** And the “Treatment-emergent AE: Skin lesion” value (phase 1, 300 mg, n = 6)?
**A.** 0 n (%)

**Q.** What about the “Treatment-emergent AE: Thrombocytopenia” value (phase 1, 300 mg, n = 6) of the same compound?
**A.** 1 (16.7) n (%)

**Q.** What about the “Treatment-emergent AE: Upper respiratory tract infection” value (phase 1, 300 mg, n = 6) of the same compound?
**A.** 1 (16.7) n (%)

**Q.** And the “Treatment-emergent AE: Vomiting” value (phase 1, 300 mg, n = 6)?
**A.** 2 (33.3) n (%)

**Q.** What about the “Treatment-emergent AE: Abdominal distension” value (phase 1, 400 mg, n = 6) of the same compound?
**A.** 3 (50.0) n (%)

**Q.** What about the “Treatment-emergent AE: Abdominal pain” value (phase 1, 400 mg, n = 6) of the same compound?
**A.** 2 (33.3) n (%)

**Q.** And the “Treatment-emergent AE: Anemia” value (phase 1, 400 mg, n = 6)?
**A.** 2 (33.3) n (%)

**Q.** And the “Treatment-emergent AE: Any AE” value (phase 1, 400 mg, n = 6)?
**A.** 6 (100.0) n (%)

**Q.** What about the “Treatment-emergent AE: Asthenia” value (phase 1, 400 mg, n = 6) of the same compound?
**A.** 0 n (%)

**Q.** And the “Treatment-emergent AE: Back pain” value (phase 1, 400 mg, n = 6)?
**A.** 2 (33.3) n (%)

**Q.** And the “Treatment-emergent AE: Cardiac murmur” value (phase 1, 400 mg, n = 6)?
**A.** 1 (16.7) n (%)

**Q.** What about the “Treatment-emergent AE: Chills” value (phase 1, 400 mg, n = 6) of the same compound?
**A.** 1 (16.7) n (%)

**Q.** And the “Treatment-emergent AE: Constipation” value (phase 1, 400 mg, n = 6)?
**A.** 2 (33.3) n (%)

**Q.** And the “Treatment-emergent AE: Cough” value (phase 1, 400 mg, n = 6)?
**A.** 1 (16.7) n (%)

**Q.** What about the “Treatment-emergent AE: Decreased appetite” value (phase 1, 400 mg, n = 6) of the same compound?
**A.** 3 (50.0) n (%)

**Q.** And the “Treatment-emergent AE: Dehydration” value (phase 1, 400 mg, n = 6)?
**A.** 2 (33.3) n (%)

**Q.** And the “Treatment-emergent AE: Diarrhea” value (phase 1, 400 mg, n = 6)?
**A.** 6 (100.0) n (%)

**Q.** And the “Treatment-emergent AE: Dizziness” value (phase 1, 400 mg, n = 6)?
**A.** 1 (16.7) n (%)

**Q.** And the “Treatment-emergent AE: Dyspnea” value (phase 1, 400 mg, n = 6)?
**A.** 2 (33.3) n (%)

**Q.** What about the “Treatment-emergent AE: Edema peripheral” value (phase 1, 400 mg, n = 6) of the same compound?
**A.** 2 (33.3) n (%)

**Q.** What about the “Treatment-emergent AE: Epistaxis” value (phase 1, 400 mg, n = 6) of the same compound?
**A.** 1 (16.7) n (%)

**Q.** What about the “Treatment-emergent AE: Fatigue” value (phase 1, 400 mg, n = 6) of the same compound?
**A.** 2 (33.3) n (%)

**Q.** And the “Treatment-emergent AE: Hyperbilirubinemia” value (phase 1, 400 mg, n = 6)?
**A.** 1 (16.7) n (%)

**Q.** What about the “Treatment-emergent AE: Hyperuricemia” value (phase 1, 400 mg, n = 6) of the same compound?
**A.** 0 n (%)

**Q.** And the “Treatment-emergent AE: Insomnia” value (phase 1, 400 mg, n = 6)?
**A.** 1 (16.7) n (%)

**Q.** What about the “Treatment-emergent AE: Nausea” value (phase 1, 400 mg, n = 6) of the same compound?
**A.** 4 (66.7) n (%)

**Q.** What about the “Treatment-emergent AE: Neutropenia” value (phase 1, 400 mg, n = 6) of the same compound?
**A.** 1 (16.7) n (%)

**Q.** What about the “Treatment-emergent AE: Night sweats” value (phase 1, 400 mg, n = 6) of the same compound?
**A.** 2 (33.3) n (%)

**Q.** And the “Treatment-emergent AE: Pain in extremity” value (phase 1, 400 mg, n = 6)?
**A.** 0 n (%)
